{"source": "patent US8916558B2", "about": "“Powders for reconstitution” (Tibotec Pharmaceuticals Ltd., priority 2007, dated 2014)", "assay": "Solubility of TMC278 in water (statement)", "format": "physicochemical", "conditions": "free base; background statement"}
{"smiles": "Cc1cc(C=CC#N)cc(C)c1Nc1ccnc(Nc2ccc(C#N)cc2)n1", "note": "[TMC278, 4-[[4-[[4-(2-cyano-ethenyl)-2,6-dimethylphenyl]-amino]-2-pyrimidinyl]-amino]-benzonitrile]", "values": [{"measurement": "solubility in water", "result": "poorly soluble in water"}]}
